Starred links: 1 amine or outer side, 2 acyl side, 3 side chain; linkers in the order of their positions; H or OH if unused. Positions of bridges follow the written chain, without caps; N, C: chain ends. Non-standard residues stand in square brackets, D forms with d. Residues, ends and D or L forms follow the SMILES beside them. *: point of attachment. X10 = O=C([C@H]1C[C@@H](N2CCC(F)(F)CC2)CN1[*:1])[*:2]; X13 = O=C([C@@H]1C[C@H](N2CCC(F)(F)CC2)CN1[*:1])[*:2]; X1 = CC(CC(=O)[*:2])C(=O)[C@@H](N[*:1])[C@@H](C)O; NMePhe(3-Cl) = CN[C@@H](Cc1cccc(Cl)c1)C(=O)O; X12 = CCCC[C@@H](O)[C@H](N[*:1])C(=O)[*:2]; X8 = O=C(CN(CCN1CCC(F)(F)CC1)[*:1])[*:2]; X3 = O=C([C@H](CCCCO)N[*:1])[*:2]; NMeF = CN[C@@H](Cc1ccccc1)C(=O)O; NMeGABA = CN(CCCC(=O)[*:2])[*:1]; NMeD = CN[C@@H](CC(=O)O)C(=O)O; NMeL = CN[C@@H](CC(C)C)C(=O)O; NMeV = CN[C@H](C(=O)O)C(C)C; NMeA = CN[C@@H](C)C(=O)O; Piperidide = C1CCN(*)CC1; dAbu = CC[C@@H](N)C(=O)O; dNMeA = CN[C@H](C)C(=O)O; NBuGly = CCCCNCC(=O)O; Ethyl(2-OH) = OCC*; Sar = CNCC(=O)O; tBu = CC(C)(C)*
Columns and labels:
Caco-2 cells [1] = conditions: Ozeki et al. 2015, cited from earlier work; for decrease in the concentration on the Apical side: 120 minutes of incubation
[2] = Caco-2 membrane permeability, improved method as used in the following Examples (96-well, 20 to 24 h preincubation); format: in vitro ADME; conditions: human, Caco-2, Caco-2 (cm/sec)
How it was run: (§1)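 Papp (cm/sec) was derived from LC/MS of basal samples collected 180 min after apical dosing in FaSSIF/HBSS pH 6.0 with 1% DMSO, against a basal HBSS pH 7.4 receiver containing 4% BSA. Three-week Caco-2 cultures were first preincubated with compound in DMEM+FaSSIF at 37 °C for 20–24 h.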

Caco-2 cells [3] = assay: as above; format: in vitro ADME
How it was run: as §1

Compound: COCCc1ccc(OCC(O)CNC(C)C)cc1 (stereo not drawn) [metoprolol]
- decrease in the concentration on the Apical side (Caco-2 cells [1]): approximately 20%

Compound: CC(C)C[C@H]1C(=O)N[C@@H]([C@@H](C)O)C(=O)N(C)CC(=O)N(C)[C@@H](C(C)C)C(=O)N[C@@H](Cc2ccccc2)C(=O)N(C)[C@@H](Cc2cccc(Cl)c2)C(=O)N(C)[C@@H](CC(C)C)C(=O)N(C)[C@H](C(=O)N2CCCCC2)CC(=O)N2CCC[C@@H]2C(=O)N[C@@H](Cc2ccccc2)C(=O)N[C@@H](COC(C)(C)C)C(=O)N1C [pd163] ([dP]FS(tBu)[NMeL]T[Sar][NMeV]F[NMePhe(3-Cl)][NMeL][NMeD]-Piperidide; lactam N-11)
- Papp A→B at 180 min [2]: 1.7 ×10⁻⁶ cm/s
- Caco-2 (Caco-2 cells [3]; Caco-2): 1.7e-06 cm/s

Compound: CC(C)C[C@H]1C(=O)N[C@@H]([C@@H](C)O)C(=O)C(C)CC(=O)N(C)[C@@H](C(C)C)C(=O)N[C@@H](Cc2ccccc2)C(=O)N(C)[C@@H](Cc2cccc(Cl)c2)C(=O)N(C)[C@@H](CC(C)C)C(=O)N(C)[C@H](C(=O)N2CCCCC2)CC(=O)N2CCC[C@H]2C(=O)N[C@@H](Cc2ccccc2)C(=O)N[C@@H](COC(C)(C)C)C(=O)N1C (stereo partly drawn) [pd162] (PFS(tBu)[NMeL][X1][NMeV]F[NMePhe(3-Cl)][NMeL][NMeD]-Piperidide; lactam N-10)
- Papp A→B at 180 min [2]: 1.2 ×10⁻⁶ cm/s
- Caco-2 (Caco-2 cells [3]; Caco-2): 1.2e-06 cm/s

Compound: CC(C)C[C@H]1C(=O)N[C@@H]([C@@H](C)O)C(=O)N(C)CC(=O)N(C)[C@@H](C(C)C)C(=O)N[C@@H](Cc2ccccc2)C(=O)N(C)[C@@H](Cc2cccc(Cl)c2)C(=O)N(C)[C@@H](CC(C)C)C(=O)N(C)[C@H](C(=O)N2CCCCC2)CC(=O)N(C)[C@H](C)C(=O)N[C@@H](Cc2ccccc2)C(=O)N[C@@H](COC(C)(C)C)C(=O)N1C [pd167] ([dNMeA]FS(tBu)[NMeL]T[Sar][NMeV]F[NMePhe(3-Cl)][NMeL][NMeD]-Piperidide; lactam N-11)
- Papp A→B at 180 min [2]: 1.7 ×10⁻⁶ cm/s
- Caco-2 (Caco-2 cells [3]; Caco-2): 1.7e-06 cm/s

Compound: CC(C)C[C@H]1C(=O)N[C@H](C(=O)N2CCCCC2)CC(=O)N[C@H](C)C(=O)N2C[C@H](N3CCC(F)(F)CC3)C[C@@H]2C(=O)N[C@@H](COC(C)(C)C)C(=O)N(C)[C@@H](CC(C)C)C(=O)N(C)[C@@H](CC(C)C)C(=O)N(C)[C@@H](CC(C)C)C(=O)N[C@@H]([C@@H](C)O)C(=O)N(C)[C@@H](Cc2ccccc2)C(=O)N[C@@H](Cc2ccccc2)C(=O)N1C [pd457] ([dA][X10]S(tBu)[NMeL][NMeL][NMeL]T[NMeF]F[NMeL]D-Piperidide; lactam N-11)
- Caco-2 (Caco-2 cells [3]; human, Caco-2, 180 min): 1.1e-06 cm/s

Compound: CCCCN1CC(=O)N(C)[C@@H](Cc2ccccc2)C(=O)N(C)[C@@H](CC(C)C)C(=O)N[C@@H](COC(C)(C)C)C(=O)N(C)[C@@H](CC(C)C)C(=O)N[C@H](C(=O)N2CCCCC2)CC(=O)N(C)CC(=O)N(C)[C@@H](Cc2ccccc2)C(=O)N[C@@H](C(C)C)C(=O)N(C)[C@@H](CC(C)C)C(=O)N[C@@H](COCCO)C1=O [pd501] ([Sar][NMeF]V[NMeL]S(Ethyl(2-OH))[NBuGly][NMeF][NMeL]S(tBu)[NMeL]D-Piperidide; lactam N-11)
- Caco-2 (Caco-2 cells [3]; human, Caco-2, 180 min): 1.1e-06 cm/s

Compound: CC(C)C[C@H]1C(=O)N[C@H](C(=O)N2CCCCC2)CC(=O)N(C)CC(=O)N(C)[C@@H](Cc2ccccc2)C(=O)N[C@@H](C(C)C)C(=O)N(C)[C@@H](CC(C)C)C(=O)N[C@@H]([C@@H](C)O)C(=O)N(CCN2CCC(F)(F)CC2)CC(=O)N(C)[C@@H](Cc2ccccc2)C(=O)N(C)[C@@H](CC(C)C)C(=O)N[C@@H](COC(C)(C)C)C(=O)N1C [pd455] ([Sar][NMeF]V[NMeL]T[X8][NMeF][NMeL]S(tBu)[NMeL]D-Piperidide; lactam N-11)
- Caco-2 (Caco-2 cells [3]; human, Caco-2, 180 min): 1.1e-06 cm/s

Compound: CCCC[C@@H](O)[C@@H]1NC(=O)[C@H](CC(C)C)N(C)C(=O)[C@H](CC(C)C)NC(=O)[C@H](Cc2ccccc2)N(C)C(=O)[C@@H](C)NC(=O)C[C@@H](C(=O)N2CCCCC2)NC(=O)[C@H](C)N(C)C(=O)[C@H](Cc2ccccc2)N(C)C(=O)[C@H](COC(C)(C)C)NC(=O)[C@H](CC(C)C)N(C)C(=O)CN(C)C1=O [pd466] ([dA][NMeF]L[NMeL][X12][Sar][NMeL]S(tBu)[NMeF][NMeA]D-Piperidide; lactam N-11)
- Caco-2 (Caco-2 cells [3]; human, Caco-2, 180 min): 1.1e-06 cm/s

Compound: CC(C)C[C@H]1C(=O)N[C@@H](CCCCO)C(=O)N(C)[C@@H](CC(C)C)C(=O)N(C)[C@@H](CC(C)C)C(=O)N[C@H](C(=O)N2CCCCC2)CC(=O)N(C)CCCC(=O)N(C)[C@@H](C(C)C)C(=O)N[C@@H](C(C)C)C(=O)N(C)[C@@H](Cc2ccccc2)C(=O)N(C)[C@@H](Cc2ccccc2)C(=O)N[C@@H](COC(C)(C)C)C(=O)N1C [pd447] ([NMeGABA][NMeV]V[NMeF][NMeF]S(tBu)[NMeL][X3][NMeL][NMeL]D-Piperidide; lactam N-11)
- Caco-2 (Caco-2 cells [3]; Papp, Caco-2 membrane permeability, improved method): 1.1e-06 cm/s

Compound: CC[C@H]1NC(=O)C[C@@H](C(=O)N2CCCCC2)NC(=O)[C@H](CC(C)C)N(C)C(=O)[C@H](Cc2ccccc2)NC(=O)[C@@H]2C[C@H](N3CCC(F)(F)CC3)CN2C(=O)[C@H]([C@@H](C)O)NC(=O)[C@H](CC(C)C)N(C)C(=O)[C@H](CC(C)C)NC(=O)[C@H](CC(C)C)N(C)C(=O)[C@H](COC(C)(C)C)NC(=O)[C@H](CC(C)C)N(C)C1=O [pd462] ([dAbu][NMeL]S(tBu)[NMeL]L[NMeL]T[X13]F[NMeL]D-Piperidide; lactam N-11)
- Caco-2 (Caco-2 cells [3]; human, Caco-2, 180 min): 1.1e-06 cm/s

Compound: CC(C)NCC(O)COc1cccc2ccccc12 (stereo not drawn) [propranolol]
- decrease in the concentration on the Apical side (Caco-2 cells [1]): approximately 40%
- added drug distributed in the cells after completion of incubation (Caco-2 cells [1]): approximately 8%
